Experimental data from patent publication US20240293551A1, “USE OF ST-TYPE LIPID COMPOUNDS IN PREPARATION OF NUCLEIC ACID DELIVERY REAGENT AND RELATED PRODUCT” (INSTITUTE OF BASIC MEDICAL SCIENCES CHINESE ACADEMY OF …, priority 2021, published 2024).

Test system: PGY-sRNA-26
Experiment: In vivo delivery study of lipid-nucleic acid mixture (oral gavage, RT-qPCR of PGY-sRNA-26 in tissues)
Set-up: species or system mouse
Settings: C57BL/6 mice, gavage, 100 μg lipid: 10 nmol PGY-sRNA-26, 12 hours; for oral delivery of single-stranded sRNA nucleic acids into mouse intestinal tissue: intestine; for delivery efficacy over each tissue and blood tested (broad-spectrum delivery): all tissues and blood tested
Description: 10 nmol of small RNA (as shown in Table 2) was dissolved in 400 μl of DEPC-treated water in a glass tube, 10 μl of the corresponding lipid stock solution was added such that the lipid mass in the system was 100 μg. The mixture was mixed thoroughly, heated in a 90° C. water bath for 15 minutes, and then cooled naturally to obtain the lipid nucleic acid mixture of lipid and small RNA.
C57BL/6 male mice, approximately 6 weeks old, weighing 20-24 g, were obtained from Beijing Vital River Laboratory Animal Technology Co., Ltd. The mice were housed in the SPF-grade animal facility at the Animal Center of the Institute of Basic Medical Sciences, Chinese Academy of Medical Sciences. The mice were fasted for 12 hours before gavage administration.
The resultant lipid nucleic acid mixture was orally administered to each mouse at a dose of 100 μg lipid: 10 nmol single-stranded 3′-methylated small RNA PGY-sRNA-26.
• 1) Blank group (n=4): mice were administered with 500 μl saline by gavage, this group served as a blank control; • 2) Free uptake group (n=4): mice were directly administered with small RNA PGY-sRNA-26 solution (10 nmol/mouse, 500 μl) by gavage, this group served as a negative control; • 3) Lipid-treated group (n=4): mice were administered with 500 μl lipid nucleic acid mixture prepared in step 2 by gavage.
After 12 hours of gavage administration, 500 μl blood from the eyeball of each mouse was sampled, added to 1.5 ml Trizol Reagent LS (purchased from Invitrogen), thoroughly mixed for lysis. 3 ml of Trizol Reagent LSwas added to tissue samples and homogenized for complete lysis, wherein the sampled tissues include heart, liver, spleen, lung, kidney, stomach, intestine, brain, blood, femur. RNA was extracted from 1 ml of the blood or the tissue lysate following the steps below: • Centrifuge at 4° C., 12,000 rpm for 5 min, discard the precipitate, transfer Trizol to a new centrifuge tube; • Add chloroform at 200 μL chloroform/mL Trizol, shake well, stand at room temperature for 5 min; • Centrifuge at 4° C., 12,000 rpm for 15 min; • Take the upper aqueous phase to another centrifuge tube, add isopropanol at 0.4 mL isopropanol/mL Trizol, mix well, and stand at low temperature for 10-20 min; • Centrifuge at 4° C., 12,000 rpm for 15 min, discard the supernatant, RNA precipitated at the bottom of the tube; • Add 1 mL of 75% ethanol, gently shake the centrifuge tube, suspend the precipitate; • Centrifuge at 4° C., 12,000 rpm for 15 min, discard the supernatant, add 1 mL of 75% ethanol, gently shake the centrifuge tube, suspend the precipitate; • Centrifuge at 4° C., 12,000 rpm for 15 min, discard the supernatant, air-dry at room temperature, dissolve RNA samples in 50 μL RNase-free H2O, measure OD value to quantify RNA concentration. 3.3 Reverse Transcription of sRNA to cDNA:
The reverse transcription system is as follows: Template RNA (200 ng/μL) 10 μL, 10×RT Buffer 2.0 μL, 25×dNTP Mix (100 mM) 0.8 μL, U6 RT stem-loop primer (10 μM) 2.0 μL, PGY-sRNA-26 RT stem-loop primer (10 μM) 2.0 μL, MultiScribe™ Reverse Transcriptase (50 U/μL) 1.0 μL, RNAse Inhibitor (40 U/μL) 1.0 μL, nuclease-free H2O 1.2 μL. After transient centrifugation, the reverse transcription system was placed in a PCR machine with the following reaction conditions: (1) 25° C., 10 min; (2) 37° C., 120 min; (3) 85° C., 5 min; (4) 4° C., stop reaction. After the reaction, add 20 μL RNAse-free ddH2O, adjust the final volume to 40 μL. The stem-loop primers used in this reverse transcription process were synthesized by Beijing Tianyi Huiyuan Biotechnology Co., Ltd. (U6 was used as a standard reference gene to calculate its relative expression, because U6 RT primer was used as a reference gene in relative quantification of RT-qPCR reactions for small RNA): […]

Compound: C=C1CC[C@H](O)C/C1=C/C=C1\CCC[C@]2(C)[C@@H]([C@H](C)CCCC(C)(C)O)CC[C@@H]12 [Lipid 571]
- oral delivery of single-stranded sRNA nucleic acids into mouse blood: can effectively orally deliver
- oral delivery of single-stranded sRNA nucleic acids into mouse brain tissue: can effectively orally deliver
- oral delivery of single-stranded sRNA nucleic acids into mouse femur: can effectively orally deliver
- oral delivery of single-stranded sRNA nucleic acids into mouse heart tissue: can effectively orally deliver
- oral delivery of single-stranded sRNA nucleic acids into mouse intestinal tissue: can effectively orally deliver
- oral delivery of single-stranded sRNA nucleic acids into mouse kidney tissue: can effectively orally deliver
- oral delivery of single-stranded sRNA nucleic acids into mouse liver tissue: can effectively orally deliver
- oral delivery of single-stranded sRNA nucleic acids into mouse lung tissue: can effectively orally deliver
- oral delivery of single-stranded sRNA nucleic acids into mouse spleen tissue: can effectively orally deliver
- oral delivery of single-stranded sRNA nucleic acids into mouse stomach tissue: can effectively orally deliver

Compound: C[C@]12CCC(=O)C=C1CC[C@@H]1[C@@H]2CC[C@@]2(C)[C@H]1CC[C@]2(C)O [Lipid 546]
- delivery efficacy over each tissue and blood tested (broad-spectrum delivery): exhibited the best delivery efficacy
- oral delivery of single-stranded sRNA nucleic acids into mouse blood: can effectively orally deliver
- oral delivery of single-stranded sRNA nucleic acids into mouse brain tissue: can effectively orally deliver
- oral delivery of single-stranded sRNA nucleic acids into mouse femur: can effectively orally deliver
- oral delivery of single-stranded sRNA nucleic acids into mouse heart tissue: can effectively orally deliver
- oral delivery of single-stranded sRNA nucleic acids into mouse intestinal tissue: can effectively orally deliver
- oral delivery of single-stranded sRNA nucleic acids into mouse kidney tissue: can effectively orally deliver
- oral delivery of single-stranded sRNA nucleic acids into mouse liver tissue: can effectively orally deliver
- oral delivery of single-stranded sRNA nucleic acids into mouse lung tissue: can effectively orally deliver
- oral delivery of single-stranded sRNA nucleic acids into mouse spleen tissue: can effectively orally deliver
- oral delivery of single-stranded sRNA nucleic acids into mouse stomach tissue: can effectively orally deliver

Compound: C[C@@H]1O[C@@H](O[C@H]2C[C@@H](O)[C@]3(CO)[C@H]4[C@H](O)C[C@]5(C)[C@@H](C6=CC(=O)OC6)CC[C@]5(O)[C@@H]4CC[C@]3(O)C2)[C@H](O)[C@H](O)[C@H]1O [Lipid 550]
- delivery efficacy over each tissue and blood tested (broad-spectrum delivery): exhibited the best delivery efficacy
- oral delivery of single-stranded sRNA nucleic acids into mouse blood: can effectively orally deliver
- oral delivery of single-stranded sRNA nucleic acids into mouse brain tissue: can effectively orally deliver
- oral delivery of single-stranded sRNA nucleic acids into mouse femur: can effectively orally deliver
- oral delivery of single-stranded sRNA nucleic acids into mouse heart tissue: can effectively orally deliver
- oral delivery of single-stranded sRNA nucleic acids into mouse intestinal tissue: can effectively orally deliver
- oral delivery of single-stranded sRNA nucleic acids into mouse kidney tissue: can effectively orally deliver
- oral delivery of single-stranded sRNA nucleic acids into mouse liver tissue: can effectively orally deliver
- oral delivery of single-stranded sRNA nucleic acids into mouse lung tissue: can effectively orally deliver
- oral delivery of single-stranded sRNA nucleic acids into mouse spleen tissue: can effectively orally deliver
- oral delivery of single-stranded sRNA nucleic acids into mouse stomach tissue: can effectively orally deliver

Compound: C[C@H](CCC(=O)NCC(=O)O)[C@H]1CC[C@H]2[C@@H]3[C@H](O)C[C@@H]4C[C@H](O)CC[C@]4(C)[C@H]3C[C@H](O)[C@]12C [Lipid 553]
- delivery efficacy over each tissue and blood tested (broad-spectrum delivery): exhibited the best delivery efficacy
- oral delivery of single-stranded sRNA nucleic acids into mouse blood: can effectively orally deliver
- oral delivery of single-stranded sRNA nucleic acids into mouse brain tissue: can effectively orally deliver
- oral delivery of single-stranded sRNA nucleic acids into mouse femur: can effectively orally deliver
- oral delivery of single-stranded sRNA nucleic acids into mouse heart tissue: can effectively orally deliver
- oral delivery of single-stranded sRNA nucleic acids into mouse intestinal tissue: can effectively orally deliver
- oral delivery of single-stranded sRNA nucleic acids into mouse kidney tissue: can effectively orally deliver
- oral delivery of single-stranded sRNA nucleic acids into mouse liver tissue: can effectively orally deliver
- oral delivery of single-stranded sRNA nucleic acids into mouse lung tissue: can effectively orally deliver
- oral delivery of single-stranded sRNA nucleic acids into mouse spleen tissue: can effectively orally deliver
- oral delivery of single-stranded sRNA nucleic acids into mouse stomach tissue: can effectively orally deliver

Compound: C[C@H](CCC(=O)O)[C@H]1CC[C@H]2[C@@H]3[C@H](O)C[C@@H]4C[C@H](O)CC[C@]4(C)[C@H]3CC[C@]12C [Lipid 580]
- oral delivery of single-stranded sRNA nucleic acids into mouse blood: can effectively orally deliver
- oral delivery of single-stranded sRNA nucleic acids into mouse brain tissue: can effectively orally deliver
- oral delivery of single-stranded sRNA nucleic acids into mouse femur: can effectively orally deliver
- oral delivery of single-stranded sRNA nucleic acids into mouse heart tissue: can effectively orally deliver
- oral delivery of single-stranded sRNA nucleic acids into mouse intestinal tissue: can effectively orally deliver
- oral delivery of single-stranded sRNA nucleic acids into mouse liver tissue: can effectively orally deliver
- oral delivery of single-stranded sRNA nucleic acids into mouse lung tissue: can effectively orally deliver
- oral delivery of single-stranded sRNA nucleic acids into mouse spleen tissue: can effectively orally deliver
- oral delivery of single-stranded sRNA nucleic acids into mouse stomach tissue: can effectively orally deliver

Compound: C[C@]12CC[C@@H]3c4ccc(O)cc4CC[C@H]3[C@@H]1C[C@@H](O)[C@@H]2O [Lipid 633]
- delivery efficacy over each tissue and blood tested (broad-spectrum delivery): exhibited the best delivery efficacy
- oral delivery of single-stranded sRNA nucleic acids into mouse blood: can effectively orally deliver
- oral delivery of single-stranded sRNA nucleic acids into mouse brain tissue: can effectively orally deliver
- oral delivery of single-stranded sRNA nucleic acids into mouse femur: can effectively orally deliver
- oral delivery of single-stranded sRNA nucleic acids into mouse heart tissue: can effectively orally deliver
- oral delivery of single-stranded sRNA nucleic acids into mouse intestinal tissue: can effectively orally deliver
- oral delivery of single-stranded sRNA nucleic acids into mouse kidney tissue: can effectively orally deliver
- oral delivery of single-stranded sRNA nucleic acids into mouse liver tissue: can effectively orally deliver
- oral delivery of single-stranded sRNA nucleic acids into mouse lung tissue: can effectively orally deliver
- oral delivery of single-stranded sRNA nucleic acids into mouse spleen tissue: can effectively orally deliver
- oral delivery of single-stranded sRNA nucleic acids into mouse stomach tissue: can effectively orally deliver

Compound: C#C[C@]1(O)CC[C@H]2[C@@H]3CCc4cc(O)ccc4[C@H]3CC[C@@]21C [Lipid 591]
- oral delivery of single-stranded sRNA nucleic acids into mouse brain tissue: can effectively orally deliver
- oral delivery of single-stranded sRNA nucleic acids into mouse femur: can effectively orally deliver
- oral delivery of single-stranded sRNA nucleic acids into mouse heart tissue: can effectively orally deliver
- oral delivery of single-stranded sRNA nucleic acids into mouse intestinal tissue: can effectively orally deliver
- oral delivery of single-stranded sRNA nucleic acids into mouse kidney tissue: can effectively orally deliver
- oral delivery of single-stranded sRNA nucleic acids into mouse lung tissue: can effectively orally deliver
- oral delivery of single-stranded sRNA nucleic acids into mouse spleen tissue: can effectively orally deliver
- oral delivery of single-stranded sRNA nucleic acids into mouse stomach tissue: can effectively orally deliver
